Reference: ChEMBL document CHEMBL3091387, “DPMA, a deoxypodophyllotoxin derivative, induces apoptosis and anti-angiogenesis in non-small cell lung cancer A549 cells” (Bioorg Med Chem Lett, 2013)
Activity calls are given as the source filed them. The calls are words filed in the database; no cut-off is given here.

Key:
A549 [1] = assay: Induction of apoptosis in human A549 cells assessed as late apoptotic cells at 5 uM after 24 hrs by annexin V-FITC/propidium iodide staining-based flow cytometric analysis (reference value: 0.65%); type: functional
A549 [2] = assay: Induction of apoptosis in human A549 cells assessed as nuclear fragmentation dispersed throughout cytoplasm at 1 uM after 36 hrs by DAPI staining-based indirect immunofluorescence assay; type: functional, cell-based
A549 [3] = assay: Induction of apoptosis in human A549 cells assessed as cell shrinkage at 0.5 to 1 uM after 48 hrs by Hoechst 33258 staining-based phase contrast microscopic analysis; type: functional
A549 [4] = assay: Induction of apoptosis in human A549 cells assessed as increase in Bax protein expression at 1 uM after 24 hrs by immunofluorescence assay; type: functional, cell-based
A549 [5] = assay: Induction of apoptosis in human A549 cells assessed as early apoptotic cells at 0.5 uM after 24 hrs by annexin V-FITC/propidium iodide staining-based flow cytometric analysis (reference value: 0.18%); type: functional
A549 [6] = assay: Induction of apoptosis in human A549 cells at 0.5 to 1 uM by Hoechst 33258 staining-based phase contrast microscopic analysis; type: functional, cell-based; details: TDE = time-dependent effect
A549 [7] = assay: Induction of apoptosis in human A549 cells assessed as inhibition of Bcl-2 protein expression at 1 uM after 24 hrs by immunofluorescence assay; type: functional, cell-based
HUVEC = assay: Antiangiogenic activity in HUVEC assessed as inhibition of VEGF-induced tube formation at 0.5 to 1 uM after 12 hrs by phase contrast inverted microscopic analysis; type: functional, cell-based; details: Homo sapiens
A549 [8] = assay: Induction of apoptosis in human A549 cells assessed as dead cells at 0.5 uM after 24 hrs by annexin V-FITC/propidium iodide staining-based flow cytometric analysis (reference value: 0.69%); type: functional
A549 [9] = assay: Cytotoxicity against human A549 cells assessed as cell viability after 48 hrs by MTT assay; type: functional, cell-based
A549 [10] = assay: Induction of apoptosis in human A549 cells assessed as nuclear fragmentation at 0.5 to 1 uM after 48 hrs by Hoechst 33258 staining-based phase contrast microscopic analysis; type: functional, cell-based
A549 [11] = assay: Cytotoxicity against human A549 cells assessed as cell viability at 0.2 to 1 uM by MTT assay; type: functional, cell-based; details: TDE = time-dependent effect
A549 [12] = assay: Induction of apoptosis in human A549 cells assessed as early apoptotic cells at 5 uM after 24 hrs by annexin V-FITC/propidium iodide staining-based flow cytometric analysis (reference value: 0.18%); type: functional
A549 [13] = assay: Upregulation of p53 protein expression in human A549 cells by Western blot analysis; type: functional, cell-based; details: TDE = time-dependent effect
[14] = Cytotoxicity activity human MSC assessed as cell viability at 0.01 to 1 uM after 48 hrs by MTT assay
A549 [15] = assay: Induction of apoptosis in human A549 cells assessed as cell shrinkage at 1 uM after 36 hrs by DAPI staining-based indirect immunofluorescence assay; type: functional
A549 [16] = assay: Induction of apoptosis in human A549 cells assessed as dead cells at 5 uM after 24 hrs by annexin V-FITC/propidium iodide staining-based flow cytometric analysis (reference value: 0.69%); type: functional
A549 [17] = assay: Induction of apoptosis in human A549 cells assessed as nuclear condensation dispersed throughout cytoplasm at 1 uM after 36 hrs by DAPI staining-based indirect immunofluorescence assay; type: functional, cell-based
A549 [18] = assay: Induction of apoptosis in human A549 cells at 0.5 to 5 uM by annexin V-FITC/propidium iodide staining-based flow cytometric analysis; type: functional, cell-based; details: TDE = time-dependent effect
A549 [19] = assay: Induction of apoptosis in human A549 cells assessed as increase in cleaved caspase-3 protein expression at 1 uM after 24 hrs by immunofluorescence assay; type: functional, cell-based
A549 [20] = assay: Induction of apoptosis in human A549 cells after 48 hrs by Hoechst 33258 staining-based phase contrast microscopic analysis; type: functional, cell-based
A549 [21] = assay: Induction of apoptosis in human A549 cells assessed as late apoptotic cells at 1 uM after 24 hrs by annexin V-FITC/propidium iodide staining-based flow cytometric analysis (reference value: 0.65%); type: functional
A549 [22] = assay: Induction of apoptosis in human A549 cells assessed as nuclear condensation at 0.5 to 1 uM after 48 hrs by Hoechst 33258 staining-based phase contrast microscopic analysis; type: functional, cell-based
A549 [23] = assay: Induction of apoptosis in human A549 cells assessed as early apoptotic cells at 1 uM after 24 hrs by annexin V-FITC/propidium iodide staining-based flow cytometric analysis (reference value: 0.18%); type: functional
A549 [24] = assay: Induction of apoptosis in human A549 cells assessed as dead cells at 1 uM after 24 hrs by annexin V-FITC/propidium iodide staining-based flow cytometric analysis (reference value: 0.69%); type: functional
A549 [25] = assay: Induction of apoptosis in human A549 cells assessed as late apoptotic cells at 0.5 uM after 24 hrs by annexin V-FITC/propidium iodide staining-based flow cytometric analysis (reference value: 0.65%); type: functional
A549 [26] = assay: Upregulation of cdc-2 protein expression in human A549 cells by Western blot analysis; type: functional, cell-based; details: TDE = time-dependent effect
A549 [27] = assay: Downregulation of phosphorylated cdc-2 protein expression in human A549 cells by Western blot analysis; type: functional, cell-based; details: TDE = time-dependent effect
Tubulin (Homo sapiens) = Tubulin (Homo sapiens) (UniProt P68371+Q9H4B7+P0DPH7+P68366+Q13509+Q71U36+P04350+Q3ZCM7+P07437+P68363+Q9BQE3+Q6PEY2+Q13885+Q9BVA1+Q9BUF5); assay: Binding affinity to tubulin in human A549 cells assessed as inhibition of microtubule network formation at 1 uM after 12 to 36 hrs by indirect immunofluorescence assay; type: cell-based
A549 [28] = assay: Induction of ROS generation in human A549 cells after 24 hrs by DCFH-DA dye-based laser confocal microscopic analysis; type: functional, cell-based
A549 [29] = assay: Induction of apoptosis in human A549 cells assessed as increase in apoptotic cells after 24 hrs by annexin V-FITC/propidium iodide staining-based flow cytometric analysis; type: functional, cell-based
A549 [30] = assay: Upregulation of cyclin B1 protein expression in human A549 cells by Western blot analysis; type: functional, cell-based; details: TDE = time-dependent effect

In the case of `COc1cc([C@@H]2c3cc4c(cc3C[C@H]3COC(=O)[C@@H]32)OCO4)cc(OC)c1OC(=O)N[C@H](CCSC)C(N)=O`, the Activity (A549 [1]) is reported as 27.54%, the Activity (A549 [2]) is reported as “Active” and the Activity (A549 [3]) is reported as “Active”. The Activity (A549 [4]) was “Active”, the Activity (A549 [5]) was 6.22% and the Activity (A549 [6]) was “tde”. For the same compound, the inhibition (A549 [7]) was “Active”, the inhibition (HUVEC) was “Active” and the Activity (A549 [8]) was 2.76%. For the same compound, the Activity (A549 [9]) was “Dose-dependent effect”, the Activity (A549 [10]) was “Active” and the Activity (A549 [11]) was “tde”. The Activity (A549 [12]) was 18.41%, the Activity (A549 [13]) was “tde” and the Activity [14] was “Non-toxic”. The Activity (A549 [15]) was “Active”, the Activity (A549 [16]) was 23.43% and the Activity (A549 [17]) was “Active”. The Activity (A549 [18]) was “tde”, the Activity (A549 [19]) was “Active” and the Activity (A549 [20]) was “Dose-dependent effect”. The Activity (A549 [21]) was 13.83%, the Activity (A549 [22]) was “Active” and the Activity (A549 [23]) was 9.28%. The Activity (A549 [24]) was 15.73%, the Activity (A549 [25]) was 6.11% and the Activity (A549 [26]) was “tde”. For the same compound, the Activity (A549 [27]) was “tde”, the inhibition (Tubulin (Homo sapiens)) was “Active” and the Activity (A549 [28]) was “Dose-dependent effect”. The Activity (A549 [29]) was “Dose-dependent effect” and the Activity (A549 [30]) was “tde”.
